Test results reported in ChEMBL document CHEMBL1138384, “Rational design of a nonpeptide general chemical scaffold for reversible inhibition of PDZ domain interactions” (Bioorg Med Chem Lett, 2007).
Activity calls are given as the source filed them. The calls are words filed in the database; no cut-off is given here.

Experiments:
[1] = species: Homo sapiens; assay: Inhibition of MAGI3-PTEN interaction assessed as activation of PKB at 5 uM
[2] = species: Homo sapiens; assay: Inhibition of MAGI3-PTEN interaction at 10 uM
[3] = Solubility in water; assay type: physicochemical
[4] = species: Homo sapiens; assay: Displacement of peptide probe from MAGI3 PDZ2 domain by fluorescent polarization method
[5] = system: HEK293; assay: Inhibition of receptor recycling in HEK293 cells assessed as reduction of adrenergic beta-2 receptor expression; assay type: functional, cell-based; settings: Homo sapiens
[6] = target: Cystic fibrosis transmembrane conductance regulator (Homo sapiens) (UniProt P13569); assay: Inhibition of […]-mediated chloride transport in human bronchial epithelial cells by voltage clamp method; assay type: cell-based; settings: Epithelial cell
Cystic fibrosis transmembrane conductance regulator (Homo sapiens), sequence (P13569 whole entry, looked up): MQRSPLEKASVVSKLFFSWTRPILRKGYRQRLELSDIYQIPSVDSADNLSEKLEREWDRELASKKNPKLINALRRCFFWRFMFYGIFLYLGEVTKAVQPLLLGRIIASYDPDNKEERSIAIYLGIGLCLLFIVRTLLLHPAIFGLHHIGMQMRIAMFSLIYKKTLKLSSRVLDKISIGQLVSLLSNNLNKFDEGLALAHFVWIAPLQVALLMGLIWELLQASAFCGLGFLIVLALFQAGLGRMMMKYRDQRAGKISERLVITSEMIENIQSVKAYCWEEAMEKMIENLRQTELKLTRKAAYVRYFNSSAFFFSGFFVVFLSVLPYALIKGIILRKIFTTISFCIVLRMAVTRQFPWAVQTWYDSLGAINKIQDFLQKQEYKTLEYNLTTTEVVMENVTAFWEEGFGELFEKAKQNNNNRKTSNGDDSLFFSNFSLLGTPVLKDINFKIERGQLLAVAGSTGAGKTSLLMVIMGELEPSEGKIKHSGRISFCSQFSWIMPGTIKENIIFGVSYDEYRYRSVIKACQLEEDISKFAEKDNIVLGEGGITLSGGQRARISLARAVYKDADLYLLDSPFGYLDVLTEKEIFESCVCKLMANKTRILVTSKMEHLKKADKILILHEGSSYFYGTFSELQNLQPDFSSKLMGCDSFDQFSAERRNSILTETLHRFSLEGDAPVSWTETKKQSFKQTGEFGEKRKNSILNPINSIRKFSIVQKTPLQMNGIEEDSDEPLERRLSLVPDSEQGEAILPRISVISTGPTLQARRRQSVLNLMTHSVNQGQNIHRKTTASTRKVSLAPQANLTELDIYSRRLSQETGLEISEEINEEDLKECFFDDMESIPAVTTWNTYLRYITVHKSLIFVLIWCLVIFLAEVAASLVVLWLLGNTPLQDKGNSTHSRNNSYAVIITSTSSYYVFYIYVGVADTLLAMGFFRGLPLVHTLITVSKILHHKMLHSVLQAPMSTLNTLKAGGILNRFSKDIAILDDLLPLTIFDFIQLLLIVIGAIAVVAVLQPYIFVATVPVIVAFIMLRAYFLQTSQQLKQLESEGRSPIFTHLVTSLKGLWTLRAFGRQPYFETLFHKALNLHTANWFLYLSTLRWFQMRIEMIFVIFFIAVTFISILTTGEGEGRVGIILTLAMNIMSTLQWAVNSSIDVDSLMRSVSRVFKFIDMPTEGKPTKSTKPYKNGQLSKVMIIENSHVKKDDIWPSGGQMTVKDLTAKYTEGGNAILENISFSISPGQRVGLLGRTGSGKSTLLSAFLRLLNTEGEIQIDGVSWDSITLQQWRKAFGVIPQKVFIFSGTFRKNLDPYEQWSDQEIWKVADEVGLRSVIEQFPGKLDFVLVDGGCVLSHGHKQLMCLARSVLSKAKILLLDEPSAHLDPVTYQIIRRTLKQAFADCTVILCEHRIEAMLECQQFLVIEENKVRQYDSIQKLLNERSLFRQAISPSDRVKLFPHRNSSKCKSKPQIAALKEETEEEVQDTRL

[7] = system: HCT-116; assay: Effect on HCT116 cells expressing wild-type PTEN assessed as 2-fold increase in PKB activity at 50 uM; assay type: functional, cell-based; settings: Homo sapiens

Row | Activity [1] | inhibition [2] [%] | solubility [3] [mM] | Activity [4] | Activity [6] | Compound | Activity [5] | Activity [7]
1 | Active | 50 |  |  |  | CCCCCc1c(CO)c2cc(C)c(C(=O)O)cc2n1CCc1ccccc1 |  | 
2 |  |  | > 30 | Active | Dose-dependent effect | CCCCC(O)c1cc2cc(C)c(C(=O)[O-])cc2n1CCc1ccccc1.[Na+] (configuration not stated) | Dose-dependent effect | Active
